Experimental data as given in PubChem BioAssay AID1963421 (Molecular Pharmacology Branch, DTP, NCI, 2024).

Tested on: 519858-162-T-J1-PDC complex spheroid growth, % test/control
Test: Anticancer human tumor 519858-162-T-J1-PDC patient-derived colon adenocarcinoma cell line growth inhibition [Asc]
Conditions: for IC50: curve of first compound; for viability, T/C: stronger effect = lower value
Outline: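 Tumor cells were grown as multicellular spheroids with stromal HUVEC and mesenchymal stem cells and treated singly or in combination. Concentrations fell in half-log steps from the clinical Cmax, or from 10 microM where none was known.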

[1] = second compound 0.0316 µM, first compound 0.0316 µM
[2] = second compound 0.0316 µM, first compound 0.1 µM
[3] = second compound 0.0316 µM, first compound 0.316 µM
[4] = second compound 0.0316 µM, first compound 1 µM
[5] = second compound 0.1 µM, first compound 0.0316 µM
[6] = second compound 0.1 µM, first compound 0.1 µM
[7] = second compound 0.1 µM, first compound 0.316 µM
[8] = second compound 0.1 µM, first compound 1 µM
[9] = second compound 0.316 µM, first compound 0.0316 µM
[10] = second compound 0.316 µM, first compound 0.1 µM
[11] = second compound 0.316 µM, first compound 0.316 µM
[12] = second compound 0.316 µM, first compound 1 µM
[13] = second compound 1 µM, first compound 0.0316 µM
[14] = second compound 1 µM, first compound 0.1 µM
[15] = second compound 1 µM, first compound 0.316 µM
[16] = second compound 1 µM, first compound 1 µM
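Further: seven day drug exposure begun three days after spheroid seeding.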
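Wherever viability, T/C is given: 100% = DMSO vehicle wells and lower values mean less viable spheroid.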

`NC(=O)C(=Cn1cnc(-c2cc(C(F)(F)F)cc(C(F)(F)F)c2)n1)c1cncnc1` + CCN1C(C(=O)NC23CCC(C(=O)O)(CC2)CC3)C(c2cccc(Cl)c2F)C2(C(=O)Nc3cc(Cl)ccc32)C12CCCCC2 was tested, and the IC50 (second compound 0.00949 µM) was over 300 nM, the IC50 (second compound 0.03 µM) was over 300 nM and the IC50 (second compound 0.0949 µM) was over 300 nM. The IC50 (second compound 0.3 µM) was over 300 nM, the IC50 (second compound 0.949 µM) was over 300 nM and the IC50 (second compound 3 µM) was over 300 nM. For the same molecule, the viability, T/C (second compound 0.00949 µM, first compound 0.000949 µM) was 102%, the viability, T/C (second compound 0.00949 µM, first compound 0.003 µM) was 94.8% and the viability, T/C (second compound 0.00949 µM, first compound 0.00949 µM) was 56.9%. It also gave a viability, T/C (second compound 0.00949 µM, first compound 0.03 µM) of 69.6%, a viability, T/C (second compound 0.00949 µM, first compound 0.0949 µM) of 65.8% and a viability, T/C (second compound 0.00949 µM, first compound 0.3 µM) of 81.9%. The viability, T/C (second compound 0.03 µM, first compound 0.000949 µM) was 87.2%, the viability, T/C (second compound 0.03 µM, first compound 0.003 µM) was 81% and the viability, T/C (second compound 0.03 µM, first compound 0.00949 µM) was 94.5%. It also gave a viability, T/C (second compound 0.03 µM, first compound 0.03 µM) of 81.4%, a viability, T/C (second compound 0.03 µM, first compound 0.0949 µM) of 63.5% and a viability, T/C (second compound 0.03 µM, first compound 0.3 µM) of 53.8%. It also gave a viability, T/C (second compound 0.0949 µM, first compound 0.000949 µM) of 87.5%, a viability, T/C (second compound 0.0949 µM, first compound 0.003 µM) of 94.5% and a viability, T/C (second compound 0.0949 µM, first compound 0.00949 µM) of 94.3%. It also gave a viability, T/C (second compound 0.0949 µM, first compound 0.03 µM) of 63.8%, a viability, T/C (second compound 0.0949 µM, first compound 0.0949 µM) of 63.4% and a viability, T/C (second compound 0.0949 µM, first compound 0.3 µM) of 63%. The viability, T/C (second compound 0.3 µM, first compound 0.000949 µM) was 75.5%, the viability, T/C (second compound 0.3 µM, first compound 0.003 µM) was 73.2% and the viability, T/C (second compound 0.3 µM, first compound 0.00949 µM) was 70.8%. For the same molecule, the viability, T/C (second compound 0.3 µM, first compound 0.03 µM) was 88.2%, the viability, T/C (second compound 0.3 µM, first compound 0.0949 µM) was 45.1% and the viability, T/C (second compound 0.3 µM, first compound 0.3 µM) was 85.9%. It also gave a viability, T/C (second compound 0.949 µM, first compound 0.000949 µM) of 69.5%, a viability, T/C (second compound 0.949 µM, first compound 0.003 µM) of 71.9% and a viability, T/C (second compound 0.949 µM, first compound 0.00949 µM) of 58.3%. For the same molecule, the viability, T/C (second compound 0.949 µM, first compound 0.03 µM) was 78.7%, the viability, T/C (second compound 0.949 µM, first compound 0.0949 µM) was 85.4% and the viability, T/C (second compound 0.949 µM, first compound 0.3 µM) was 79.2%. For the same molecule, the viability, T/C (second compound 3 µM, first compound 0.000949 µM) was 69%, the viability, T/C (second compound 3 µM, first compound 0.003 µM) was 81.2% and the viability, T/C (second compound 3 µM, first compound 0.00949 µM) was 59%. The viability, T/C (second compound 3 µM, first compound 0.03 µM) was 65.5%, the viability, T/C (second compound 3 µM, first compound 0.0949 µM) was 91.2% and the viability, T/C (second compound 3 µM, first compound 0.3 µM) was 82.1%.

`CCN1CCN(Cc2ccc(Nc3ncc(F)c(-c4cc(F)c5nc(C)n(C(C)C)c5c4)n3)nc2)CC1` + CNC(C)C(=O)NC1CN(S(=O)(=O)c2cccc(S(=O)(=O)N3CCC4CCC(C(=O)NC(c5ccccc5)c5ccccc5)N4C(=O)C(NC(=O)C(C)NC)C3)c2)CCC2CCC(C(=O)NC(c3ccccc3)c3ccccc3)N2C1=O showed an IC50 (second compound 0.00316 µM) of over 1000 nM, an IC50 (second compound 0.01 µM) of over 1000 nM and an IC50 (second compound 0.0316 µM) of over 1000 nM. For the same molecule, the IC50 (second compound 0.1 µM) was over 1000 nM, the IC50 (second compound 0.316 µM) was over 1000 nM and the IC50 (second compound 1 µM) was over 1000 nM. For the same molecule, the viability, T/C (second compound 0.00316 µM, first compound 0.00316 µM) was 98%, the viability, T/C (second compound 0.00316 µM, first compound 0.01 µM) was 99.6% and the viability, T/C (second compound 0.00316 µM, first compound 0.0316 µM) was 127%. For the same molecule, the viability, T/C (second compound 0.00316 µM, first compound 0.1 µM) was 115%, the viability, T/C (second compound 0.00316 µM, first compound 0.316 µM) was 84.4% and the viability, T/C (second compound 0.00316 µM, first compound 1 µM) was 70%. The viability, T/C (second compound 0.01 µM, first compound 0.00316 µM) was 108%, the viability, T/C (second compound 0.01 µM, first compound 0.01 µM) was 107% and the viability, T/C (second compound 0.01 µM, first compound 0.0316 µM) was 95.1%. The viability, T/C (second compound 0.01 µM, first compound 0.1 µM) was 64.7%, the viability, T/C (second compound 0.01 µM, first compound 0.316 µM) was 79.1% and the viability, T/C (second compound 0.01 µM, first compound 1 µM) was 93%. For the same molecule, the viability, T/C (second compound 0.0316 µM, first compound 0.00316 µM) was 116%, the viability, T/C (second compound 0.0316 µM, first compound 0.01 µM) was 112% and the viability, T/C [1] was 94.8%. The viability, T/C [2] was 96.6%, the viability, T/C [3] was 86.4% and the viability, T/C [4] was 77.2%. It also gave a viability, T/C (second compound 0.1 µM, first compound 0.00316 µM) of 128%, a viability, T/C (second compound 0.1 µM, first compound 0.01 µM) of 120% and a viability, T/C [5] of 106%. It also gave a viability, T/C [6] of 89.3%, a viability, T/C [7] of 84.2% and a viability, T/C [8] of 76.3%. It also gave a viability, T/C (second compound 0.316 µM, first compound 0.00316 µM) of 77%, a viability, T/C (second compound 0.316 µM, first compound 0.01 µM) of 91.7% and a viability, T/C [9] of 120%. The viability, T/C [10] was 67.6%, the viability, T/C [11] was 47.6% and the viability, T/C [12] was 71.7%. The viability, T/C (second compound 1 µM, first compound 0.00316 µM) was 115%, the viability, T/C (second compound 1 µM, first compound 0.01 µM) was 117% and the viability, T/C [13] was 107%. For the same molecule, the viability, T/C [14] was 80.1%, the viability, T/C [15] was 77.9% and the viability, T/C [16] was 83.4%.

`C=C(F)C(=O)N1CCN(c2nc(OCC3CCCN3C)nc3c2CCN(c2cccc4cccc(Cl)c24)C3)CC1CC#N` (stereo unspecified) + Cc1c(S(C)(=O)=O)c(-c2cc(F)cc(N3CCN(c4ccc(NS(=O)(=O)c5ccc(NC(CCN6CCC(C(=O)OCCCP(=O)(O)O)CC6)CSc6ccccc6)c(S(=O)(=O)C(F)(F)F)c5)cc4)CC3)c2)c(-c2ccc(Cl)cc2)n1C(C)C gave an IC50 (second compound 0.0316 µM) of under 31.6 nM, an IC50 (second compound 0.1 µM) of 9040 nM and an IC50 (second compound 0.316 µM) of 6370 nM. The IC50 (second compound 1 µM) was 5090 nM, the IC50 (second compound 3.16 µM) was 2510 nM and the IC50 (second compound 10 µM) was 2690 nM. It also gave a viability, T/C [1] of 43.8%, a viability, T/C [2] of 78.2% and a viability, T/C [3] of 94.3%. The viability, T/C [4] was 98.9%, the viability, T/C (second compound 0.0316 µM, first compound 3.16 µM) was 82.6% and the viability, T/C (second compound 0.0316 µM, first compound 10 µM) was 64.9%. For the same molecule, the viability, T/C [5] was 115%, the viability, T/C [6] was 111% and the viability, T/C [7] was 103%. The viability, T/C [8] was 89%, the viability, T/C (second compound 0.1 µM, first compound 3.16 µM) was 84.8% and the viability, T/C (second compound 0.1 µM, first compound 10 µM) was 45.3%. It also gave a viability, T/C [9] of 95.9%, a viability, T/C [10] of 102% and a viability, T/C [11] of 88%. For the same molecule, the viability, T/C [12] was 70.2%, the viability, T/C (second compound 0.316 µM, first compound 3.16 µM) was 61.9% and the viability, T/C (second compound 0.316 µM, first compound 10 µM) was 43.5%. It also gave a viability, T/C [13] of 102%, a viability, T/C [14] of 84.7% and a viability, T/C [15] of 116%. For the same molecule, the viability, T/C [16] was 86.5%, the viability, T/C (second compound 1 µM, first compound 3.16 µM) was 62.8% and the viability, T/C (second compound 1 µM, first compound 10 µM) was 33.2%. The viability, T/C (second compound 3.16 µM, first compound 0.0316 µM) was 86.9%, the viability, T/C (second compound 3.16 µM, first compound 0.1 µM) was 74.1% and the viability, T/C (second compound 3.16 µM, first compound 0.316 µM) was 81.8%. The viability, T/C (second compound 3.16 µM, first compound 1 µM) was 61.1%, the viability, T/C (second compound 3.16 µM, first compound 3.16 µM) was 47.9% and the viability, T/C (second compound 3.16 µM, first compound 10 µM) was 13.5%. For the same molecule, the viability, T/C (second compound 10 µM, first compound 0.0316 µM) was 86.7%, the viability, T/C (second compound 10 µM, first compound 0.1 µM) was 66.5% and the viability, T/C (second compound 10 µM, first compound 0.316 µM) was 72.4%. It also gave a viability, T/C (second compound 10 µM, first compound 1 µM) of 62.3%, a viability, T/C (second compound 10 µM, first compound 3.16 µM) of 51.4% and a viability, T/C (second compound 10 µM, first compound 10 µM) of 3.12%.
